In patent US20240067632A1, “WEE1 Degrading Compounds and Uses Thereof” (Bristol-Myers Squibb Company, priority 2022, published 2024):

Tests used:
[1] = molecular target: T1, WEE1 (Homo sapiens, UniProt P30291+Q96SW2); experiment: WEE1-ePL degradation assay (LentiX-WEE1-ePL-GSPT1-ND cells, InCELL Hunter luminescence, 4 h); type: cell-based; details: 293T-LentiX WEE1-ePL cells; for 293T-LentiX WEE1-ePL Degradation 4 hr (Ymin): lower limit of the fit (0 = luciferase inhibitor, Ymax = DMSO control); for DC50: read-out: 293T-LentiX WEE1-ePL Degradation 4 hr (EC50)
T1 construct: C-terminal ePL-tagged (DiscoverX, Fremont, CA) full-length WEE1 expression construct; expressed in transfected cells; host or cells: LentiX-HEK293T (Invitrogen), lentiviral transduction; co-expressing GSPT1-GN (G576N, lacking the first 158 amino acids)
Summary of the method: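 Luminescent readout (InCELL Hunter, 30 min RT) of WEE1-ePL levels in transduced HEK293T cells after 4 h compound exposure at 37 °C. Dosing: 10 points, 3-fold steps, top 1 uM or 10 uM. EC50 from four-parameter logistic fit; Ymax set by DMSO.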

[2] = test system: MKN45 cells; experiment: MKN45 cell proliferation assay (Cell-Titer-Glo, 120 h); type: cell-based; details: for EC50: Homo sapiens, MKN-45, 120 h, Cell-Titer-Glo, growth inhibition, read-out: MKN45 Cell Prolif. 120 hr (EC50); for MKN45 Cell Prolif. 120 hr (Ymin-Obs): minimal percent of DMSO control observed in the concentrations tested
Summary of the method: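 Cells seeded at 400/well onto pre-printed 10-point half-log dilutions (top 1 or 10 uM, 0.1% DMSO final), in triplicate, and grown 120 h at 37 C. Viability by Cell-Titer-Glo luminescence, blank-subtracted and normalised to DMSO; EC50 from four-parameter logistic fit, with observed minimal % of control recorded as Ymin-obs.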

| 293T-LentiX WEE1-ePL Degradation 4 hr (Ymin) [1] | DC50 [1] | EC50 [2] | SMILES | MKN45 Cell Prolif. 120 hr (Ymin-Obs) [2] |
| --- | --- | --- | --- | --- |
| 30 | 0.00166 µM | 0.00185 µM | O=C1CCC(N2Cc3cc(O[C@H]4CCN(Cc5cc6ccc([C@@H]7CCOC7)cc6cn5)C4)ccc3C2=O)C(=O)N1 (stereo partly drawn) [3-(1-oxo-5-{[(3S)-1-({7-[(3S)-oxolan-3-yl]isoquinolin-3-yl}methyl)pyrrolidin-3-yl]oxy}-2,3-dihydro-1H-isoindol-2-yl)piperidine-2,6-dione] | 7.635 |
| 79 | 3.33 µM | > 10 µM | O=C1CCC(N2Cc3cc(O[C@H]4CCN(Cc5ccc6c(c5)CCCN6)C4)ccc3C2=O)C(=O)N1 (stereo partly drawn) [3-(1-oxo-5-{[(3S)-1-[(1,2,3,4-tetrahydroquinolin-6-yl)methyl]pyrrolidin-3-yl]oxy}-2,3-dihydro-1H-isoindol-2-yl)piperidine-2,6-dione] | 93.175 |
| 37.28 | 0.112 µM | 1.71 µM | O=C1CCC(N2Cc3cc(O[C@H]4CCN(Cc5cc6ccccc6[nH]c5=O)C4)ccc3C2=O)C(=O)N1 (stereo partly drawn) [3-(1-oxo-5-{[(3S)-1-[(2-oxo-1,2-dihydroquinolin-3-yl)methyl]pyrrolidin-3-yl]oxy}-2,3-dihydro-1H-isoindol-2-yl)piperidine-2,6-dione] | 30.3825 |
| 40.56 | 0.0747 µM | 0.61 µM | O=C1CCC(N2Cc3cc(O[C@H]4CCN(Cc5ccc6[nH]c(=O)ccc6c5)C4)ccc3C2=O)C(=O)N1 (stereo partly drawn) [3-(1-oxo-5-{[(3S)-1-[(2-oxo-1,2-dihydroquinolin-6-yl)methyl]pyrrolidin-3-yl]oxy}-2,3-dihydro-1H-isoindol-2-yl)piperidine-2,6-dione] | 17.75 |
| 55 | 0.0288 µM | > 10 µM | O=C1CCC(N2Cc3cc(O[C@H]4CCN(Cc5ccc6ccc(=O)oc6c5)C4)ccc3C2=O)C(=O)N1 (stereo partly drawn) [3-(1-oxo-5-{[(3S)-1-[(2-oxo-2H-chromen-7-yl)methyl]pyrrolidin-3-yl]oxy}-2,3-dihydro-1H-isoindol-2-yl)piperidine-2,6-dione] | 85.765 |
| 80 |  | > 10 µM | O=C1CCC(N2Cc3cc(O[C@H]4CCN(Cc5ccc6c(c5)OC(=O)CN6)C4)ccc3C2=O)C(=O)N1 (stereo partly drawn) [3-(1-oxo-5-{[(3S)-1-[(2-oxo-3,4-dihydro-2H-1,4-benzoxazin-7-yl)methyl]pyrrolidin-3-yl]oxy}-2,3-dihydro-1H-isoindol-2-yl)piperidine-2,6-dione] | 90.28 |
| 38 | 0.00694 µM | 0.023 µM | O=C1CCC(N2Cc3cc(O[C@H]4CCN(Cc5ccnc(-c6ccccc6)c5)C4)ccc3C2=O)C(=O)N1 (stereo partly drawn) [3-(1-oxo-5-{[(3S)-1-[(2-phenylpyridin-4-yl)methyl]pyrrolidin-3-yl]oxy}-2,3-dihydro-1H-isoindol-2-yl)piperidine-2,6-dione] | 9.19 |
| 30 | 0.00536 µM | 0.0042 µM | CO[C@H]1CC[C@](C)(Nc2ccc3cc(CN4CC[C@H](Oc5ccc6c(c5)CN(C5CCC(=O)NC5=O)C6=O)C4)ccc3n2)CC1 (stereo partly drawn) [3-(1-oxo-5-{[(3S)-1-[(2-{[(1r,4r)-4-methoxy-1-methylcyclohexyl]amino}quinolin-6-yl)methyl]pyrrolidin-3-yl]oxy}-2,3-dihydro-1H-isoindol-2-yl)piperidine-2,6-dione] | 8.155 |
| 32.5 | 0.00628 µM | 0.00505 µM | CO[C@H]1CC[C@H](Nc2ccc3cc(CN4CC[C@H](Oc5ccc6c(c5)CN(C5CCC(=O)NC5=O)C6=O)C4)ccc3n2)CC1 (stereo partly drawn) [3-(1-oxo-5-{[(3S)-1-[(2-{[(1r,4r)-4-methoxycyclohexyl]amino}quinolin-6-yl)methyl]pyrrolidin-3-yl]oxy}-2,3-dihydro-1H-isoindol-2-yl)piperidine-2,6-dione] | 8.26 |
